Measurements reported in patent publication US20240400606A1, “SMALL MOLECULE ACTIVATORS OF THE IMMUNE SYSTEM” (THE BOARD OF TRUSTEES OF THE UNIVERSITY OF ILLINOIS, priority 2021, published 2024).
Entries after “also recorded” stand apart in the source; their conditions may differ.

Experiments:
[1] = system: whole cell CS levels in MDG; assay: Whole cell cholesterol sulfate quantification, MDG; assay type: cell-based, human; conditions: 6.25 μM, 72 hours
Procedure: General Whole Cell Cholesterol Sulfate Quantification. 60×15 mm tissue culture dishes were seeded with MCF-7 at 2×10^6 cells/dish or T47D at 1×10^6 cells per dish, 5 mL total media volume, and allowed to adhere overnight. Compounds of interest were dissolved in DMSO. Cells were treated with 25 μL 1.25 mM compound of interest stock (6.25 μM final compound concentration, 0.5% final DMSO concentration) or DMSO for 72 hours. To harvest, media was aspirated, and cells were washed once with PBS before detaching with trypsin. Trypsin was quenched with media. Cells were centrifuged at 300 xg for 3 minutes and supernatant was discarded. Cells were resuspended in media and counted using a Countess 3 automated cell counter (Thermo Fisher Scientific). 1.5×10^6 cells were collected, washed twice with 1 mL PBS, then pelleted and stored at −80° C. until lysis. […] 100 μL of supernatant was transferred to an empty Eppendorf tube and submitted for LC-MS/MS quantification (UIUC Metabolomics Center), along with 5 mM cholesterol sulfate sodium salt standard.
General LC-MS/MS Quantification Method. Both DHEAS and CS samples were analyzed by 6500 QTRAP (Sciex, Redwood City, CA) liquid chromatography-tandem mass spectrometry. […] Cholesterol-sulfate and DHEA-sulfate were detected by multiple reaction monitoring (MRM) at m/z 465→97.0 and 367.0→97.0 respectively. […]

[2] = system: free cholesterol levels in MCF-7; assay: Whole cell cholesterol assay; assay type: cell-based, human; conditions: MCF-7, 6.25 μM, 72 hours
Procedure: Whole Cell Cholesterol Assay. Assay was run according to manufacturer's instructions. Briefly, 5000 MCF-7 cells were plated in 99 μL media in a 96-well plate and allowed to adhere overnight before DMSO solutions of compounds were added to each well. Final concentration of DMSO in each well is 1%, final volume: 100 μL. At the end of 72 hours, media was aspirated, and cells were washed twice with 100 μL PBS. 50 μL of cholesterol lysis solution was added and cells were incubated for 30 minutes at 37° C. 50 μL of sample was then transferred to a 96-well white walled assay plate. 50 μL of cholesterol detection reagent was added to all wells and incubated at room temperature for 1 hour. Luminescence was read using a SpectraMax M3 plate reader (Molecular Devices). Cholesterol levels were determined by use of a cholesterol standard curve.

[3] = system: STS and SULT2B1b levels in MCF-7; assay: Western blot of STS and SULT2B1b after treatment, MCF-7; assay type: cell-based, human; conditions: MCF-7, 6.25 μM, 72 hours
Procedure: (§1) Western Blot Analysis. Cells were lysed using RIPA buffer containing phosphatase (BioVision) and protease inhibitor cocktail (Calbiochem). Protein concentrations were determined using the BCA assay (Pierce). Lysates containing 15 μg of protein were loaded onto 4-20% gradient gels (BioRad), and SDS-PAGE was run. Proteins were then transferred onto membrane (PVDF Millipore) for Western Blot analysis. Blots were blocked with BSA solution (2 g in 40 mL TBST) for one hour followed by primary antibody addition and incubation overnight (using manufacturer's recommended dilutions). Following overnight incubation, blots were washed with TBST, and incubated with HRP-linked secondary antibody for 1 hour in TBST. Blots were washed, then imaged with ChemiDoc after incubation with SuperSignal West Pico Solution following manufacturer's procedures.

[4] = system: STS and SULT2B1b levels in T47D; assay: Western blot of STS and SULT2B1b after treatment, T47D; assay type: cell-based; conditions: 6.25 μM, 72 hours
Procedure: as §1

[5] = in vivo, ip
Procedure: Tolerability Studies. Three female C57/BL6 mice were administered single IP doses (formulated in 50% DMSO/50% Peg400) of compound (2). Compound was formulated at a concentration of 20-40 mg/mL depending on dose. Mice were injected with 100 μL formulated compound. Mouse weight and lethality were tracked as indicators of compound tolerability. Tolerability of vehicle had been previously assessed.
Maximum tolerated dose mouse studies: Compound (3) was formulated in 50% DMSO, 50% Peg400 at 20 mg/mL (for 100 mg/kg injection), 25 mg/mL (for 125 mg/kg injection), or 40 mg/mL (for 200 mg/kg injection). Compound was injected intraperitoneally into female C57BL/6 mice, and the mice were monitored for signs of toxicity.

[6] = molecular target: SULT2B1b (Homo sapiens (Human), UniProt O00204); assay: Compound aggregation assay (LC-MS/MS assay with BSA decoy protein); assay type: biochemical; conditions: decoy protein BSA 0.1 mg/mL, dose response; listed as IB:10:D
Chain of SULT2B1b (O00204 whole entry): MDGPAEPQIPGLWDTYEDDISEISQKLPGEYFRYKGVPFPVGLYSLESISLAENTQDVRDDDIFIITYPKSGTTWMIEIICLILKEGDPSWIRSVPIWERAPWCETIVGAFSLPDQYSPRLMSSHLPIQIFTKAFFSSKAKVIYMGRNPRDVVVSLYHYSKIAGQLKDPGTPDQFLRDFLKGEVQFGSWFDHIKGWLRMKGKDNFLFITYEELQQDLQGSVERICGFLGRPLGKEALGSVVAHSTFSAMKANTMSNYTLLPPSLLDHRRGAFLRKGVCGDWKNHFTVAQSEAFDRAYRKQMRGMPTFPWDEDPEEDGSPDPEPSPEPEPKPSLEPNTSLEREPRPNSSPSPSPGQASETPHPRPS
Procedure: Compound Aggregation Assay. Stock solutions of DHEA (5 mM in DMSO) and compound of interest (5 mM in DMSO) were prepared. For each 60 μL reaction, to a 1.5 mL Eppendorf tube was added 26.7 μL 1× assay buffer supplemented with 0.2 mg/mL bovine serum albumin (BSA) and 1.2 μL compound of interest or DMSO. BSA-containing 1× assay buffer and compound of interest were incubated at room temperature for 5 minutes before addition of 1.2 μL of 5 mM DHEA, and 0.9 μL 6.6 mM PAPS. SULT2B1b was diluted to 1.5 μg/μL in protein storage buffer then down to 0.8 μg/μL in 1× activity assay buffer. 30 μL of 0.8 μg/μL SULT2B1b was added to each reaction. Reactions were incubated for 2 hours at 37° C. with shaking at 250 rpm. To quench, 30 μL reaction mix was added to 30 μL ice cold 0.5% HCl in MeCN, then centrifuged at 13,000 xg at room temperature for 3 min. 50 μL supernatant was transferred to an empty Eppendorf tube and submitted for LC-MS/MS quantification (UIUC Metabolomics Center). For samples run without BSA, an identical protocol was followed using 26.7 μL 1× assay buffer that had not been supplemented with BSA. Controls: Reaction mix made with DHEA, DMSO in place of compound of interest (DHEA control).
Percent inhibition was calculated as: 100−[100×(DHEA-sulfate producedcompound of interest/DHEA sulfate producedDHEA)].

SMILES | whole cell CS levels vs DMSO [1] | free cholesterol levels vs DMSO [2] | STS and SULT2B1b levels after treatment [3] | STS and SULT2B1b levels after treatment [4] | tolerated dose ([5]; female, C57BL/6, mouse) | tolerability ([5]; mouse, 200 mg/kg) | shift in SULT2B1b inhibition in the presence of BSA [6]
C[C@]12CCC(=O)N(Cc3ccc(Br)cc3)C1=CC[C@@H]1[C@@H]2C(=O)C[C@]2(C)C(=O)CC[C@@H]12 [Compound 3, (4aR,4bS,6aS,9aS,9bS)-1-(4-bromobenzyl)-4a,6a-dimethyl-3,4,4a,6,6a,8,9,9a,9b,10-decahydro-1H-indeno[5,4-f]quinoline-2,5,7(4bH)-trione] | confirmed | no statistical difference | unchanged | unchanged | up to 200 mg/kg | not tolerated | 
C[C@]12CCC(=O)N(Cc3ccc(Cl)cc3)C1=CC[C@@H]1[C@@H]2C(=O)C[C@]2(C)C(=O)CC[C@@H]12 [Compound 1, (4aR,4bS,6aS,9aS,9bS)-1-(4-chlorobenzyl)-4a,6a-dimethyl-3,4,4a,6,6a,8,9,9a,9b,10-decahydro-1H-indeno[5,4-f]quinoline-2,5,7(4bH)-trione] |  |  |  |  |  |  | minimal shift; also recorded: no change
